Read-outs that look alike come from different tables or passages of the source.
Assays:
plasma cholesterol = assay: Cholesterol lowering in hypercholesterolemic rats; assay type: in vivo; settings: for change in vivo at 0.2 mg/kg/day / change in vivo at 0.5 mg/kg/day: Rattus norvegicus, read-out: % Cholesterol Lowering
[1] = target: T1, human thyroid hormone receptors TRα1 (Homo sapiens, UniProt P10827); assay: Receptor binding to TRα1 (gel filtration and scintillation proximity assay, labeled T3); settings: read-out: Ki TRα
T1 construct: made in house; host or cells: Sf9 insect cells (baculovirus)
T1 sequence (P10827 1-410 isoform P10827-2): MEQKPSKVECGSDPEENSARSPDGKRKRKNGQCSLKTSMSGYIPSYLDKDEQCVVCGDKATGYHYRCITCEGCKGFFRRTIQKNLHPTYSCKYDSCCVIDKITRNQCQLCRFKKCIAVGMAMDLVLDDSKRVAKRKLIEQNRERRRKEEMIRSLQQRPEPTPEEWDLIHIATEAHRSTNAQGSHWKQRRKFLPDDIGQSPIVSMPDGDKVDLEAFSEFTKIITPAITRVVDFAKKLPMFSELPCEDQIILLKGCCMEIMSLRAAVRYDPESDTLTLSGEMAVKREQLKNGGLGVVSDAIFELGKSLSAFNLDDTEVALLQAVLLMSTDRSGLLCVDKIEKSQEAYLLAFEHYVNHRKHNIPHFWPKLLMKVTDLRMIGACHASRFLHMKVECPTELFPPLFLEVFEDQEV
T1 sequence (P19793 1-462 partner): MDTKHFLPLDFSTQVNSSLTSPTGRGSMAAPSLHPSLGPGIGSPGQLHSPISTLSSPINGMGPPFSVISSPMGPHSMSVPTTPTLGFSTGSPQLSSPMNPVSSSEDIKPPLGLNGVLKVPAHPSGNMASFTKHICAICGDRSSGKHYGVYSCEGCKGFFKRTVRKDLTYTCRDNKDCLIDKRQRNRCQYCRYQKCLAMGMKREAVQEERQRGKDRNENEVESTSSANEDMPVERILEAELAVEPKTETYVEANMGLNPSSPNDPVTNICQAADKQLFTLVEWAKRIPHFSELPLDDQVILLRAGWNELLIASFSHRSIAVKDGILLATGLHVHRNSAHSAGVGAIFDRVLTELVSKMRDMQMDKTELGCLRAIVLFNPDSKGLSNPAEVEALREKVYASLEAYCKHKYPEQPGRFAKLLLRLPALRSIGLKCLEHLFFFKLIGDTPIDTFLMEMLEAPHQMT
Experimental: (§1) Methods: Baculoviruses expressing TRα1, TRβ1 and RXRα were generated using cDNA and other reagents from Invitrogen (Carlsbad, Calif.). To produce TR/RXR heterodimer proteins, the sf9 insect cells were first grown to a density of 1-5×10^5 cells/mL. […] and RXRα baculovirus stocks were added to the cell culture with a ratio of 1 to 1 (multiplicity of infection=10). The cells were harvested three days after the infection.
(§2) Binding of compounds to either the TRα1 or TRβ1 were also performed by means of scintillation proximity assays (SPA). The SPA assay, a common method used for the quantitation of receptor-ligand equilibria, makes use of special beads coated with a scintillant and a capture molecule, copper, which binds to the histidine-tagged α or β receptor.

[2] = target: T2, human thyroid hormone receptors TRβ1 (Homo sapiens, UniProt P10828); assay: Receptor binding to TRβ1 (gel filtration and scintillation proximity assay, labeled T3); settings: read-out: Ki TRβ
T2 construct: made in house; host or cells: Sf9 insect cells (baculovirus)
T2 sequence (P10828 1-461): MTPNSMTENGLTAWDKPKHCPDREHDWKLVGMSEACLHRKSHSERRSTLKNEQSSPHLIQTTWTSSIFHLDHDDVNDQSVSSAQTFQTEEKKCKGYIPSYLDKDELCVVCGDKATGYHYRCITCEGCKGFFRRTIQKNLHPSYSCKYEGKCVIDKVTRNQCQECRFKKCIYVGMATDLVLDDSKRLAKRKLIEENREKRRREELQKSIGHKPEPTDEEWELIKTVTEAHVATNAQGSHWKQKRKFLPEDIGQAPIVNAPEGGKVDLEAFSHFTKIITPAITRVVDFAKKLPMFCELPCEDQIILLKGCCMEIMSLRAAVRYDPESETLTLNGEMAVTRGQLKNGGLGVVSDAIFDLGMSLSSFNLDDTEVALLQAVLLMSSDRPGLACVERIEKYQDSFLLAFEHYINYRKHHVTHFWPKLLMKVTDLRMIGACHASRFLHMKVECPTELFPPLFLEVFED
T2 sequence (P19793 1-462 partner): T1 sequence (P19793 1-462 partner)
Experimental: as §1, §2

[3] = ip, delivered i.p (0.2 mg/kg/d), percentage change from pre-dose cholesterol
[4] = po, delivered p.o. (0.2 mg/kg/d), percentage change from pre-dose cholesterol

| Compound | change in vivo at 0.2 mg/kg/day (plasma cholesterol; [3]) | Ki ([1]; SPA data) | change in vivo at 0.2 mg/kg/day (plasma cholesterol; [4]) | Ki ([2]; SPA data) | other results |
| --- | --- | --- | --- | --- | --- |
| O=P(O)(O)Cc1cc(I)c(Oc2ccc(O)c(I)c2)c(I)c1 [Compound 6, 3,5-diiodo-4-(4′-hydroxy-3′-iodophenoxy)benzylphosphonic acid] | -20.5% | 0.016 µM |  |  | Ki [2]: 0.026 µM |
| Cc1cc(OCP(=O)(O)O)cc(C)c1Cc1ccc(O)c(-c2ccccc2)c1 [Compound 7-1, [3,5-dimethyl-4-(4′-hydroxy-3′-phenylbenzyl)phenoxy]methylphosphonic acid] |  |  | -12.2% | 0.106 µM | Ki [1]: 1.17 µM |
| CCC(C)c1cc(Cc2c(C)cc(OCP(=O)(O)O)cc2C)ccc1O (stereo not shown) [Compound 7-3, [3,5-dimethyl-4-(3′-sec-butyl-4′-hydroxybenzyl)phenoxy]methylphosphonic acid] | -45.4% | 0.031 µM | -36.5% | 0.0066 µM |  |
| Cc1cc(OC(F)(F)P(=O)(O)O)cc(C)c1Cc1ccc(O)c(C(C)C)c1 [Compound 7-6, difluoro-[3,5-dimethyl-4-(4′-hydroxy-3′-iso-propylbenzyl)phenoxy]methylphosphonic acid] | -13.5% | 0.098 µM |  | 0.0076 µM |  |
| CCc1cc(Cc2c(C)cc(OCP(=O)(O)O)cc2C)ccc1O [Compound 7-8, [3,5-dimethyl-4-[3′-ethyl-4′-hydroxybenzyl]phenoxy]methylphosphonic acid] | -28.6% |  |  |  | Ki [1]: 0.062 µM; Ki [2]: 0.0097 µM |
| CCC(CC)c1cc(Cc2c(C)cc(OCP(=O)(O)O)cc2C)ccc1O [Compound 7-9, [3,5-dimethyl-4-[3′-(1-ethylpropyl)-4′-hydroxybenzyl]phenoxy]methylphosphonic acid] | -63.2% | 0.11 µM | -38.4% | 0.0054 µM |  |
| Cc1cc(Cc2c(C)cc(OCP(=O)(O)O)cc2C)cc(C(C)C)c1O [Compound 7-10, [3,5-dimethyl-4-(4′-hydroxy-3′-iso-propyl-5′-methyl benzyl)phenoxy]methylphosphonic Acid] | -25.8% | 0.112 µM |  | 0.048 µM |  |
| CC(C)c1cc(Cc2c(Cl)cc(OCP(=O)(O)O)cc2Cl)cc(Br)c1O [Compound 7-14, [3,5-dichloro-4-(5′-bromo-4′-hydroxy-3′-iso-propylbenzyl)phenoxy]methylphosphonic acid] | -32.9% | 0.429 µM |  | 0.052 µM |  |
| CC(C)c1cc(Oc2c(I)cc(OCP(=O)(O)O)cc2I)ccc1O [Compound 8, [3,5-diiodo-4-(4′-hydroxy-3′-iso-propylphenoxy)phenoxy]methylphosphonic acid] | -24.3% |  | -20.6% |  | Ki [1]: 0.00374 µM; Ki [2]: 0.00097 µM |
| CC(C)c1cc(Oc2c(Br)cc(OCP(=O)(O)O)cc2Br)ccc1O [Compound 8-1, [3,5-dibromo-4-(3′-iso-propyl-4′-hydroxyphenoxy)phenoxy]methylphosphonic acid] |  |  | -32.2% |  | Ki [1]: 0.0186 µM; Ki [2]: 0.00251 µM |
| CC(C)c1cc(Oc2c(Cl)cc(OCP(=O)(O)O)cc2Cl)ccc1O [Compound 8-2, [3,5-dichloro-4-(3′-iso-propyl-4′-hydroxyphenoxy)phenoxy]methylphosphonic acid] | -48% | 0.114 µM |  | 0.02 µM |  |
| O=P(O)(O)Cc1cc(Cl)c(Oc2ccc(O)c(Cc3ccc(F)cc3)c2)c(Cl)c1 [Compound 11, 3,5-dichloro-4-[3′-(4-fluorobenzyl)-4′-hydroxyphenoxy]benzylphosphonic acid] | -36.4% | 0.121 µM | -5.1% | 0.0303 µM |  |
| CCOC(=O)[C@H](C)NP(=O)(COc1cc(I)c(Oc2ccc(O)c(C(C)C)c2)c(I)c1)N[C@@H](C)C(=O)OCC [Compound 15-8] |  |  |  |  | change in vivo at 0.5 mg/kg/day (plasma cholesterol; po, delivered p.o. (0.5 mg/kg/d), percentage change from pre-dose cholesterol): -31.1% |
| CC(C)c1cc(Oc2c(Cl)cc(CP(=O)(O)O)cc2Cl)ccc1O [Compound 19, [3,5-dichloro-4-(4′-hydroxy-3′-iso-propylphenoxy)]benzylphosphonic acid] | -19% |  |  |  | Ki [1]: 0.304 µM; Ki [2]: 0.052 µM |
| CCOP(=O)(Cc1cc(Br)c(Oc2ccc(O)c(C(C)C)c2)c(Br)c1)OCC [Compound 19-1, diethyl[3,5-dibromo-4-(4′-hydroxy-3′-iso-propylphenoxy)]benzylphosphonate] |  |  |  |  | change in vivo at 0.5 mg/kg/day (plasma cholesterol; po): -6.6%; cholesterol lowering (plasma cholesterol; hypercholesterolemic rats, 0.5 mg/kg/d orally): failed to demonstrate cholesterol lowering |
| CC(C)c1cc(Oc2c(Cl)cc(NCP(=O)(O)O)cc2Cl)ccc1O [Compound 22, [3,5-dichloro-4-(4′-hydroxy-3′-iso-propylphenoxy)phenylamino]methylphosphonic acid] | -44% | 0.186 µM | -16.5% | 0.031 µM |  |
| CC(C)c1cc(Oc2c(Br)cc(NCP(=O)(O)O)cc2Br)ccc1O [Compound 22-1, [3,5-dibromo-4-(4′-hydroxy-3′-iso-propylphenoxy)phenylamino]methylphosphonic acid] |  |  | -19.9% |  | Ki [2]: 0.0015 µM |
| Cc1cc(CCP(=O)(O)O)cc(C)c1Cc1ccc(O)c(C(C)C)c1 [Compound 24-1, 2-[3,5-dimethyl-4-(4′-hydroxy-3′-iso-propylbenzyl)phenyl]ethylphosphonic acid] | -35.4% |  |  |  | Ki [2]: 0.031 µM |
| Cc1cc(/C=C/P(=O)(O)O)cc(C)c1Cc1ccc(O)c(C(C)C)c1 [Compound 24-2, trans-2-[3,5-dimethyl-4-(4′-hydroxy-3′-iso-propylbenzyl)phenyl]vinylphosphonic acid] | -20.5% | > 2 µM |  | 0.024 µM |  |
| CCC(C)c1cc(Cc2c(C)cc(CCP(=O)(O)O)cc2C)ccc1O (stereo not shown) [Compound 24-3, 2-[4-(3′-sec-butyl-4′-hydroxy-benzyl)-3,5-dimethyl-phenyl]-ethylphosphonic acid] | -48.6% | 0.113 µM |  | 0.00287 µM |  |
| Cc1cc(OCP(=O)(O)O)cc(C)c1Cc1ccc(F)c(C(C)C)c1 [Compound 27, [3,5-dimethyl-4-(4′-fluoro-3′-iso-propylbenzyl)phenoxy]methylphosphonic acid] | -20.8% | > 2 µM |  | > 2 µM |  |
| Cc1cc(/C=C/P(=O)(O)O)cc(C)c1Oc1ccc(O)c(C(C)C)c1 [Compound 28, trans-2-[3,5-dimethyl-4-(4′-hydroxy-3′-iso-propylphenoxy)phenyl]vinylphosphonic acid] | -20.5% | 0.375 µM |  | 0.014 µM |  |
| Cc1cc(CCCP(=O)(O)O)cc(C)c1Oc1ccc(O)c(C(C)C)c1 [Compound 29, 3-[3,5-dimethyl-4-(4′-hydroxy-3′-iso-propylphenoxy)phenyl]propylphosphonic acid] | -21.9% | 0.661 µM |  | 0.047 µM |  |
| Cc1cc(OC[P@@]2(=O)OCC[C@@H](c3cccc(Br)c3)O2)cc(C)c1Cc1ccc(O)c(C(C)C)c1 [cis-13-2] |  |  |  |  | efficacy in lowering cholesterol (plasma cholesterol; another experiment, hypercholesterolemic rats): not efficacious |

Source: patent publication US20090028925A1, “Novel Phosphinic Acid-Containing Thyromimetics” (priority 2005, published 2009)
